Measured values reported in ChEMBL document CHEMBL5230103, “Hydroxamic acid hybrids as the potential anticancer agents: An Overview” (Eur J Med Chem, 2020).
In brackets after ≈: the same amount, converted by molar mass.

How the values were obtained:
SW-620 [1] = assay: Cytotoxicity against human SW620 cells assessed as inhibition of cell growth by MTT assay; format: functional, cell-based
MCF7 [2] = assay: Cytotoxicity against human MCF7 cells assessed as inhibition of cell growth by MTT assay; format: functional, cell-based
ASPC1 = assay: Cytotoxicity against human ASPC1 cells assessed as inhibition of cell growth by MTT assay; format: functional, cell-based
PC-3 [3] = assay: Cytotoxicity against human PC-3 cells assessed as inhibition of cell growth by MTT assay; format: functional, cell-based
PC-3 [4] = assay: Potency index, ratio of vorinostat IC50 to test compound IC50 for cytotoxicity against human PC-3 cells assessed as inhibition of cell growth by MTT assay; format: functional
NCI-H23 [5] = assay: Potency index, ratio of vorinostat IC50 to test compound IC50 for cytotoxicity against human NCI-H23 cells assessed as inhibition of cell growth by MTT assay; format: functional
SW-620 [6] = assay: Potency index, ratio of vorinostat IC50 to test compound IC50 for cytotoxicity against human SW620 cells assessed as inhibition of cell growth by MTT assay; format: functional
NCI-H23 [7] = assay: Cytotoxicity against human NCI-H23 cells assessed as inhibition of cell growth by MTT assay; format: functional, cell-based
Histone deacetylase = assay: Inhibition of HDAC (unknown origin); format: protein assay, Homo sapiens
Histone deacetylase 2 = Histone deacetylase 2 (Homo sapiens, UniProt Q92769); assay: Inhibition of HDAC2 (unknown origin)
Histone deacetylase 2, sequence (Q92769 whole entry): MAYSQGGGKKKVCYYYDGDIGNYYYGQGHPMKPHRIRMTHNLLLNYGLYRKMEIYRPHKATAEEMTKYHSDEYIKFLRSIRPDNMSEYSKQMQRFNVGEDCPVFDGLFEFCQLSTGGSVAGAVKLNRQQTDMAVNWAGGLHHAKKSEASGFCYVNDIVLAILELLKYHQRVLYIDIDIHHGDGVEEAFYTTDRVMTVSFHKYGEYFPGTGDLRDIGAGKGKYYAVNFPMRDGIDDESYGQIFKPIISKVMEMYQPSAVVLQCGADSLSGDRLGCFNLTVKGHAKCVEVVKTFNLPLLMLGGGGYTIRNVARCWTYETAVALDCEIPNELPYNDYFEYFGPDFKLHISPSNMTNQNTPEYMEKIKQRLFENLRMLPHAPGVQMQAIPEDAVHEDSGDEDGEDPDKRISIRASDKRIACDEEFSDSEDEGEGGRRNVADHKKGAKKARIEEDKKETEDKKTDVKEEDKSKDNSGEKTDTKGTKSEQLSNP

MV4-11 = assay: Cytotoxicity against human MV4-11 cells assessed as inhibition of cell growth by SRB assay; format: functional, cell-based
PC-3 [8] = assay: Cytotoxicity against human PC-3 cells assessed as inhibition of cell growth by SRB assay; format: functional, cell-based
HL-60 = assay: Antiproliferative activity against human HL-60 cells assessed as inhibition of cell growth by MTT assay; format: functional, cell-based
HepG2 [9] = assay: Cytotoxicity against human HepG2 cells assessed as inhibition of cell growth by MTT assay; format: functional, cell-based
HepG2 [10] = assay: Cytotoxicity against human HepG2 cells assessed as inhibition of cell growth measured after 72 hrs by MTT assay; format: functional, cell-based; conditions: HepG2, 72 h
MCF7 [11] = assay: cells; format: functional, cell-based; conditions: Homo sapiens, MCF7, 72 h
Description: Cytotoxicity against human MCF7 cells assessed as inhibition of cell growth measured after 72 hrs by MTT assay

U2OS = assay: cells; format: functional, cell-based; conditions: Homo sapiens, 72 h
Description: Cytotoxicity against human U2OS cells assessed as inhibition of cell growth measured after 72 hrs by MTT assay

HCT-116 = assay: Cytotoxicity against human HCT-116 cells assessed as inhibition of cell growth by MTT assay; format: functional, cell-based
RPMI-8226 = assay: Cytotoxicity against human RPMI-8226 cells assessed as inhibition of cell growth by MTS assay; format: functional, cell-based
K562 = assay: Cytotoxicity against human K562 cells assessed as inhibition of cell growth by MTT assay; format: functional, cell-based
A549 = assay: Cytotoxicity against human A549 cells assessed as inhibition of cell growth by MTT assay; format: functional, cell-based
MDA-MB-231 = assay: Cytotoxicity against human MDA-MB-231 cells assessed as inhibition of cell growth by MTT assay; format: functional, cell-based

SMILES: Cc1ccc(-c2nnc(NC(=O)CCCCCCC(=O)NO)s2)s1
- IC50 (SW-620 [1]): 880 nM
- IC50 (MCF7 [2]): 880 nM
- IC50 (ASPC1): 880 nM
- IC50 (PC-3 [3]): 880 nM

SMILES: COc1cc2ncn(Cc3ccc(C(=O)NO)cc3)c(=O)c2cc1OC
- IC50 (SW-620 [1]): 620 nM
- Ratio IC50 (PC-3 [4]): >3
- Ratio IC50 (NCI-H23 [5]): >3
- Ratio IC50 (SW-620 [6]): >3
- IC50 (NCI-H23 [7]): 620 nM
- IC50 (Histone deacetylase): 370 nM
- IC50 (PC-3 [3]): 620 nM

SMILES: O=C(CCCn1cc(CN2C(=O)/C(=N\O)c3cc(F)ccc32)nn1)NO
- IC50 (Histone deacetylase 2): 910 nM

SMILES: O=C(/C=C/c1ccc(CN2C(=O)C3(OCCO3)c3ccccc32)cc1)NO
- IC50 (SW-620 [1]): > 3050 nM
- IC50 (ASPC1): > 3050 nM
- IC50 (PC-3 [3]): > 3050 nM

SMILES: CC(C)n1cnc2c(-c3ccc(OCCCCCC(=O)NO)cc3)nc(N3CCOCC3)nc21
- IC50 (MV4-11): 970 nM
- IC50 (Histone deacetylase): 278 nM
- IC50 (PC-3 [8]): 970 nM

SMILES: C[C@H]1[C@@H](NC(=O)CCCCCC(=O)NO)O[C@@H]2O[C@@]3(C)CC[C@H]4[C@H](C)CC[C@@H]1[C@@]24OO3
- IC50 (HL-60): 1.28 µg/mL (≈ 2.91 µM)
- IC50 (HepG2 [9]): 1.28 µg/mL
- IC50 (MCF7 [2]): 1.28 µg/mL

SMILES: CC(C)n1cnc2c(-c3ccc(COCCCCCC(=O)NO)cc3)nc(N3CCOCC3)nc21
- IC50 (MV4-11): 970 nM
- IC50 (Histone deacetylase): 278 nM
- IC50 (PC-3 [8]): 970 nM

SMILES: O=C(CCCCCCC(=O)Nc1nnc(-c2cccs2)s1)NO
- IC50 (SW-620 [1]): 880 nM
- IC50 (MCF7 [2]): 880 nM
- IC50 (ASPC1): 880 nM
- IC50 (PC-3 [3]): 880 nM

SMILES: C[C@H]1[C@@H](NC(=O)CCCCC(=O)NO)O[C@@H]2O[C@@]3(C)CC[C@H]4[C@H](C)CC[C@@H]1[C@@]24OO3
- IC50 (HL-60): 1.28 µg/mL (≈ 3 µM)
- IC50 (HepG2 [9]): 1.28 µg/mL
- IC50 (MCF7 [2]): 1.28 µg/mL

SMILES: O=C(CCCn1cc(CN2C(=O)/C(=N\O)c3cc(Br)ccc32)nn1)NO
- IC50 (Histone deacetylase 2): 910 nM

SMILES: CC(C)n1cnc2c(-c3ccc(OCCCCCCCC(=O)NO)cc3)nc(N3CCOCC3)nc21
- IC50 (MV4-11): 970 nM
- IC50 (Histone deacetylase): 278 nM
- IC50 (PC-3 [8]): 970 nM

SMILES: CC(C)n1cnc2c(-c3cccc(COCCCCCC(=O)NO)c3)nc(N3CCOCC3)nc21
- IC50 (MV4-11): 160 nM
- IC50 (Histone deacetylase): 35 nM
- IC50 (PC-3 [8]): 160 nM

SMILES: CC(C)n1cnc2c(-c3cccc(COCCCCCCCC(=O)NO)c3)nc(N3CCOCC3)nc21
- IC50 (MV4-11): 160 nM
- IC50 (Histone deacetylase): 35 nM
- IC50 (PC-3 [8]): 160 nM

SMILES: COc1cc(NC(C)CCCCCCNC(=O)CCC(=O)NO)c2ncccc2c1 (stereo unspecified)
- IC50 (HepG2 [10]): 1600 nM
- IC50 (MCF7 [11]): 1600 nM
- IC50 (U2OS): 1600 nM

SMILES: COc1ccc2c(c1)C1(OCCO1)C(=O)N2CCCCCCC(=O)NO
- IC50 (SW-620 [1]): 50 nM
- IC50 (Histone deacetylase 2): 30 nM
- IC50 (ASPC1): 50 nM
- IC50 (PC-3 [3]): 50 nM

SMILES: CC(C)n1cnc2c(-c3ccc(OCC(=O)NO)cc3)nc(N3CCOCC3)nc21
- IC50 (MV4-11): 970 nM
- IC50 (Histone deacetylase): 278 nM
- IC50 (PC-3 [8]): 970 nM

SMILES: O=C(COc1ccc(C(=O)/C=C/c2ccccc2)cc1)NO
- IC50 (HepG2 [9]): 620 nM
- IC50 (HCT-116): 620 nM
- IC50 (MCF7 [2]): 620 nM

SMILES: CC(C)n1cnc2c(-c3ccc(COCCCCCCCC(=O)NO)cc3)nc(N3CCOCC3)nc21
- IC50 (MV4-11): 970 nM
- IC50 (Histone deacetylase): 278 nM
- IC50 (PC-3 [8]): 970 nM

SMILES: CC(C)n1cnc2c(-c3ccc(OCCCCCCC(=O)NO)cc3)nc(N3CCOCC3)nc21
- IC50 (MV4-11): 970 nM
- IC50 (Histone deacetylase): 278 nM
- IC50 (PC-3 [8]): 970 nM

SMILES: CCCCCSc1ncc(C(=O)NO)c(N(Cc2ccccc2)S(=O)(=O)c2ccc(OC)cc2)n1
- IC50 (RPMI-8226): > 7800 nM

SMILES: CC(C)n1cnc2c(-c3ccc(OCCCCC(=O)NO)cc3)nc(N3CCOCC3)nc21
- IC50 (MV4-11): 970 nM
- IC50 (Histone deacetylase): 278 nM
- IC50 (PC-3 [8]): 970 nM

SMILES: O=C(Cn1cnc2c(c1=O)C1CCCCC1S2)NCc1ccc(C(=O)NO)cc1 (stereo unspecified)
- IC50 (HepG2 [9]): 4860 nM
- IC50 (HCT-116): 4860 nM
- IC50 (MCF7 [2]): 4860 nM

SMILES: CCCCCCSc1ncc(C(=O)NO)c(N(Cc2ccccc2)S(=O)(=O)c2ccc(OC)cc2)n1
- IC50 (RPMI-8226): > 7800 nM

SMILES: O=C(CCC(=O)Nc1nnc(-c2ccc(Cl)cc2)s1)NO
- IC50 (K562): 14700 nM
- IC50 (A549): 14700 nM
- IC50 (Histone deacetylase): 200 nM
- IC50 (MDA-MB-231): 14700 nM
- IC50 (PC-3 [3]): 14700 nM

SMILES: C[C@H]1[C@@H](NC(=O)CCCCCCCC(=O)NO)O[C@@H]2O[C@@]3(C)CC[C@H]4[C@H](C)CC[C@@H]1[C@@]24OO3
- IC50 (HL-60): 1.28 µg/mL (≈ 2.73 µM)
- IC50 (HepG2 [9]): 1.28 µg/mL
- IC50 (MCF7 [2]): 1.28 µg/mL

SMILES: Cc1nc2ccc(Cl)cc2c(=O)n1Cc1ccc(C(=O)NO)cc1
- IC50 (SW-620 [1]): 620 nM
- Ratio IC50 (PC-3 [4]): >3
- Ratio IC50 (NCI-H23 [5]): >3
- Ratio IC50 (SW-620 [6]): >3
- IC50 (NCI-H23 [7]): 620 nM
- IC50 (Histone deacetylase): 760 nM
- IC50 (PC-3 [3]): 620 nM

SMILES: O=C(COc1ccc(C(=O)/C=C/c2ccc(F)cc2)cc1)NO
- IC50 (HepG2 [9]): 620 nM
- IC50 (HCT-116): 620 nM
- IC50 (MCF7 [2]): 620 nM
